Earlier results as cited in patent US20250288540A1, “METHODS AND COMPOSITIONS FOR PAIN MANAGEMENT” (SILO PHARMA, INC., priority 2024, published 2025).

Assays:
[1] = tested on: halothane requirements (MAC); conditions: rat
[2] = tested on: N-methyl-D-aspartate (NMDA) receptor

Structure (SMILES) | solubility in ethanol (ethanol) [mg/mL] | solubility in ether (ether) | solubility in methanol (methanol) | activity relative to ketamine in reducing halothane requirements (MAC) [1] | affinity at the NMDA receptor compared with ketamine [2]
CNC1(c2ccccc2Cl)CCCCC1=O.Cl (centres unmarked) [Ketamine hydrochloride, 2-(2-chlorophenyl)-2-(methylamino) cyclohexan-1-one hydrochloride] | ~750 | practically insoluble | freely soluble | – | –
NC1(c2ccccc2Cl)CCCCC1=O (centres unmarked) [Norketamine] | – | – | – | about ⅓ | less affinity
